Columns and labels:
mCGRP receptor = mCGRP receptor (Mus musculus, UniProt Q9R1W5+Q9WTJ5); assay: cell-based; conditions: SEM
Protocol: (§1) Cells were grown in a humidified incubator at 37°C and 5% CO2 and seeded into 96-well plates at a density of 20,000 cells/well. The following day, Cos-7 cells were transiently transfected using Polyethylenimine (PEI) using a 1:1 ratio of receptor:RAMP DNA.
(§2) Transfected Cos-7 cells were incubated with agonist in the presence or absence of antagonist at 37°C for 15 min. cAMP production was terminated by aspirating all the media in the wells, followed by the addition of 50 μl of ice-cold ethanol.
(§3) The Hill slope was constrained to one following agonist analyses. The Schild slope was also constrained to one. The pA2 and pKB values were obtained from the Schild analysis. For washout experiments, the same method of analysis was applied to the antagonists, but with minor revisions. The Schild analysis relied on the matched control agonist curves i.e. those derived from the same experimental conditions as the agonist + antagonist curves. Normalization was also specific to the matched control agonist curves.
(§4) Mean pEC50, pKB and pA2 values from at least three independent experiments before normalization were also presented as mean ± SEM. pEC50, pKB and pA2 values from independent experiments were grouped and compared by unpaired Student’s t-test or by one-way ANOVA. […]

mAMY1 receptor = target: T1, mAMY1 receptor (Mus musculus, UniProt Q60755+Q9WTJ5); assay: cell-based; conditions: SEM
T1 sequence (Q60755 42-496 isoform Q60755-2 limits assumed): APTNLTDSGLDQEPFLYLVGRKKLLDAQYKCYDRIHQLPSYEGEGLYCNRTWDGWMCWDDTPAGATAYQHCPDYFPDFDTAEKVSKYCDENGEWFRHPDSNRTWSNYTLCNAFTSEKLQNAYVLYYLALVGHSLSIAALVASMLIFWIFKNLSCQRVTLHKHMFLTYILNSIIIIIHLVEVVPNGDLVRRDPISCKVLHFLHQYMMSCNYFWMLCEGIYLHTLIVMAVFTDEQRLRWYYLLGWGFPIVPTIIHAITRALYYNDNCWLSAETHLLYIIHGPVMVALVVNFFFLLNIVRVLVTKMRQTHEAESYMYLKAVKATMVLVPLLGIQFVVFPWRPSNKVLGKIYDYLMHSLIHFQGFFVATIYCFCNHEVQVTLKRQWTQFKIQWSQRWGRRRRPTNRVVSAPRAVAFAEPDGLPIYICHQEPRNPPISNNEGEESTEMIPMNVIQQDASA
T1 sequence (Q9WTJ5 27-148): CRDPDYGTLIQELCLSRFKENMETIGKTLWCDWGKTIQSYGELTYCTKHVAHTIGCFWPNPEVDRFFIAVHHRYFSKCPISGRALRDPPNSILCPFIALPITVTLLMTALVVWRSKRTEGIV
Protocol: as §1, §2, §3, §4

mCGRP receptor, sequence (Q9R1W5 23-463, one chain of several): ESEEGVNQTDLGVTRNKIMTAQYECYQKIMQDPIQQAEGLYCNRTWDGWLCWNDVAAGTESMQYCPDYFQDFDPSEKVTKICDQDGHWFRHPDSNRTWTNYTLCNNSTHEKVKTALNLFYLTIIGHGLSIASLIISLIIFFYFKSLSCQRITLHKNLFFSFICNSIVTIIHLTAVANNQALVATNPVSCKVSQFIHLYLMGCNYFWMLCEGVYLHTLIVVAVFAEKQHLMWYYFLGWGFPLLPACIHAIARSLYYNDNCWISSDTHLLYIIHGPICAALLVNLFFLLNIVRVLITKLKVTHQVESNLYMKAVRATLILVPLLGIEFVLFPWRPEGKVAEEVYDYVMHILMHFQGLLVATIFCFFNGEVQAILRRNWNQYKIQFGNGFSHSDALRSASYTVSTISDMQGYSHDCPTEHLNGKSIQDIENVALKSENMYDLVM

Structure (SMILES): CC(C)C[C@H](NC(=O)CNC(=O)[C@H](C)NC(=O)[C@H](CC(C)C)NC(=O)[C@H](CCCNC(=N)N)NC(=O)[C@H](Cc1cnc[nH]1)NC(=O)[C@@H](NC(=O)[C@@H](N)C(C)C)[C@@H](C)O)C(=O)N[C@@H](CC(C)C)C(=O)N[C@@H](CO)C(=O)N[C@@H](CCCNC(=N)N)C(=O)N[C@@H](CO)C(=O)NCC(=O)NCC(=O)N[C@H](C(=O)N[C@H](C(=O)N[C@@H](CCCCN)C(=O)N[C@@H](CC(N)=O)C(=O)N[C@@H](CC(N)=O)C(=O)N[C@@H](Cc1ccccc1)C(=O)N[C@H](C(=O)N1CCC[C@H]1C(=O)N[C@H](C(=O)N[C@@H](CC(N)=O)C(=O)N[C@H](C(=O)NCC(=O)N[C@@H](CO)C(=O)N[C@@H](CCCCN)C(=O)N[C@@H](C)C(=O)N[C@@H](Cc1ccccc1)C(N)=O)C(C)C)[C@@H](C)O)C(C)C)C(C)C)C(C)C [αCGRP8-37]
- Kb (mCGRP receptor): 1 nM
- Kb (mAMY1 receptor): 24.5 nM
